The test system of data set [1] is SARS-CoV-2. Description: Antiviral activity against SARS-CoV-2 infected in African green monkey Vero E6 cells assessed as inhibition of virus induced cytopathic effect by CellTiter-Glo luminescent cell viability assay. Format: functional, organism-based. To be noted: Severe acute respiratory syndrome coronavirus 2, Vero C1008. Background: Protection from cytopathic effect is a common read-out in antiviral testing.

The target in data set [2] is T1, Replicase polyprotein 1ab (Severe acute respiratory syndrome coronavirus 2, UniProt P0DTD1). The data set is described as follows: Inhibition of SARS-CoV-2 3CLp using fluorescent substrate by FRET assay.
Data set [3] concerns SARS-CoV-2. Description: Antiviral activity against wild type SARS-CoV-2 infected in human Calu-3 cells. Format: functional, organism-based. Particulars: Severe acute respiratory syndrome coronavirus 2, Calu-3.
Data set [4] concerns the target T1, Replicase polyprotein 1ab. Description: Inhibition of SARS-CoV-2 recombinant 3CLpro using fluorogenic substrate (Dabcyl-KTSAVLQ]SGFRK M-E.
Data set [5] addresses von Hippel-Lindau disease tumor suppressor-SARS-Cov-2 polyprotein (Severe acute respiratory syndrome coronavirus 2, UniProt P0DTD1+P40337). Description: PROTAC activity at SARS-CoV-2 Main protease/VHL (unknown origin) in SARS-CoV-2 infected african green monkey Vero cell assessed as inhibition of virus-mediated cytopathic effect measured after 72 hrs. Format: cell-based.
For data set [6], the target named is T1, Replicase polyprotein 1ab. The data set is described as follows: Inhibition of recombinant SARS-CoV2 6xHis-tag-Main protease containing modified HRV-3C expressed in Escherichia coli using Mca-AVLQSGFR-K(Dnp)K peptide substrate assessed as fluorescent intensity.
Data set [7] in a line: Oral bioavailability in Sprague-Dawley rat at 20 mg/kg. Format: ADME, organism-based. To be noted: in vivo.
For data set [8], the system named is SARS-CoV-2. Description: Antiviral activity against SARS-CoV-2 infected in African green monkey Vero E6 cells at 0.1 MOI assessed as inhibition of virus induced cytopathic effect by CCK8 assay. Format: functional, organism-based. To be noted: Severe acute respiratory syndrome coronavirus 2, Vero C1008.
The test system of data set [9] is SARS-CoV-2. The data set is described as follows: Antiviral activity against SARS-CoV-2 infected in HAPEpIC cells at 0.01 MOI assessed as reduction in viral RNA copies by RT-qPCR analysis. It is filed as functional, organism-based. To be noted: Severe acute respiratory syndrome coronavirus 2. On the technique in general: Real-time PCR tracks product formation cycle by cycle.

Data set [10] is described as follows: Bioavailability in Sprague-Dawley rat at 20 mg/kg, ip. Format: ADME, organism-based. Particulars: in vivo.
The target of data set [11] is Protein cereblon/Replicase polyprotein 1ab (Severe acute respiratory syndrome coronavirus 2, UniProt P0DTD1+Q96SW2). The data set is described as follows: PROTAC activity at SARS-CoV-2 Main protease/CRBN (unknown origin) in SARS-CoV-2 infected african green monkey Vero cell assessed as inhibition of virus-mediated cytopathic effect measured after 72 hrs. Format: cell-based.

Data set [12] relates to SARS-CoV-2. The data set is described as follows: Antiviral activity against SARS-CoV-2 infected in African green monkey Vero E6 cells assessed as inhibition of viral replication incubated by plaque reduction assay. Particulars: Severe acute respiratory syndrome coronavirus 2, Vero C1008. It is filed as functional, organism-based. Background: In a plaque reduction assay, fewer plaques than in the control indicate reduced infectivity or spread.

Data set [13] deals with T1, Replicase polyprotein 1ab. Description: Inhibition of recombinant SARS-CoV-2 3CLp using fluorogenic substrate by microplate reader.
Data set [14] can be described thus: Oral bioavailability in Sprague-Dawley rat at 10 mg/kg. Particulars: in vivo. Format: ADME, organism-based.
The subject of data set [15] is SARS-CoV-2. The data set is described as follows: Antiviral activity against SARS-CoV-2 Delta. Format: functional. To be noted: Severe acute respiratory syndrome coronavirus 2, Delta.

Chain of von Hippel-Lindau disease tumor suppressor-SARS-Cov-2 polyprotein (P40337 whole entry, other chains not shown): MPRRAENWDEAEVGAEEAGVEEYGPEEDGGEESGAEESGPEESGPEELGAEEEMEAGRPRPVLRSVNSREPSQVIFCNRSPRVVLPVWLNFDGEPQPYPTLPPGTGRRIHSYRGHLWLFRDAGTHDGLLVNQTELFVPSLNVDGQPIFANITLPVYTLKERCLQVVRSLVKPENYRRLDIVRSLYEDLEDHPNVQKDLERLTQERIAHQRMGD
Chain of Protein cereblon/Replicase polyprotein 1ab (Q96SW2 whole entry, other chains not shown): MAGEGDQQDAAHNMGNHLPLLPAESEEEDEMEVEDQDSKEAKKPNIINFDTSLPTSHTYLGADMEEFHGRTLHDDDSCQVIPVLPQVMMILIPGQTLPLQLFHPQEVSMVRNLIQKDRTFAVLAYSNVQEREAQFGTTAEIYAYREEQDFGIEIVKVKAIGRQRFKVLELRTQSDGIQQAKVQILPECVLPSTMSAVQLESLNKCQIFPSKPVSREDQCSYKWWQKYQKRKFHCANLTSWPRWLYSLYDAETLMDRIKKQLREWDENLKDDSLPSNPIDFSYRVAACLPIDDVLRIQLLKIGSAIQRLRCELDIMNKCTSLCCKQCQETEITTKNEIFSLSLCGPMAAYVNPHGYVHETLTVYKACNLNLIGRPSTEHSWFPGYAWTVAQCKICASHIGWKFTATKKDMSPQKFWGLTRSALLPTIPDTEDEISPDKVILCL

For orientation: EC50 means the midpoint of the concentration-response curve. Usually IC50 stands for the concentration that gives 50% inhibition. As for `CCC[C@H]1C(=O)N2C[C@]3(C[C@H]2C#N)C(=O)Nc2ccc(cc23)CCCCCN1C(=O)c1cc2c(F)cc(F)c(F)c2[nH]1`, the EC50 with SARS-CoV-2 [1] is under 100 nM. For the same compound, in [2], the IC50 is under 100 nM. As to `CC(C)[C@H]1C(=O)N2C[C@]3(C[C@H]2C#N)C(=O)Nc2ccc(cc23)CCCCCN1C(=O)c1cc2c(F)cc(F)c(F)c2[nH]1`, in the data set on SARS-CoV-2 [1], the EC50 is under 100 nM. Moreover, the IC50 in data set [2] was under 100 nM. In the case of `N#C[C@@H]1C[C@]23CN1C(=O)[C@H](c1ccccc1)N(C(=O)C1CN(c4ccc(F)cc4)N=N1)CCCCCc1ccc(c2c1)NC3=O` (some centres undefined), in the data set on SARS-CoV-2 [1], the EC50 is over 1000 nM. The same compound had an IC50 in data set [2] of under 100 nM.

In turn, `C[C@H](NC(=O)[C@@H](c1cccnc1)N(C(=O)CC#N)c1ccc(-c2ccccc2)cc1)c1ccccc1` had an IC50 in [2] of 500 nM. In addition, it took 2920 nM to reach a half-maximal effect with SARS-CoV-2 [3] (EC50). As to `CNC(=O)c1cc(C)cc([N+](=O)[O-])c1N1CC[C@]2(CCN(C(=O)c3cncc4cc(O)ccc34)C2)C1`, the IC50 in [4] came to 49500 nM.

As for `CC(C)[C@H]1C(=O)N2C[C@]3(C[C@H]2C#N)C(=O)Nc2ccc(cc23)CCCCCN1C(=O)c1cc2c(F)cc(F)cc2[nH]1`, the EC50 in the data set with SARS-CoV-2 [1] was under 100 nM. Also, the IC50 in data set [2] is under 100 nM. For the compound `CNC(=O)c1cc(Br)cc([N+](=O)[O-])c1N[C@@H]1CCC[C@H](NC(=O)c2cncc3cccc(O)c23)C1`, the IC50 in data set [4] was 62500 nM. In the case of `CC(C)[C@H]1C(=O)N2C[C@]3(C[C@H]2C#N)C(=O)Nc2ccc(cc23)CCCCCN1C(=O)C1CN(c2ccccc2)N=N1` (some centres undefined), the EC50 in the data set on SARS-CoV-2 [1] is under 100 nM. Besides, in [2], the IC50 is under 100 nM. `Cc1ncsc1-c1ccc(CNC(=O)[C@@H]2C[C@@H](O)CN2C(=O)[C@@H](NC(=O)CCOCCOCCOCCn2nnc(COC3CCC(OC(=O)N[C@@H](CC(C)C)C(=O)N[C@H](C=O)C[C@@H]4CCNC4=O)CC3)c2C)C(C)(C)C)cc1` (some centres undefined): in data set [5], the EC50 amounted to 350 nM.

With `CC(C)[C@H]1C(=O)N2C[C@]3(C[C@H]2C#N)C(=O)Nc2ccc(cc23)CCCCCN1C(=O)c1cc2ccc(C(F)(F)F)cc2[nH]1`, the EC50 in the data set with SARS-CoV-2 [1] is under 100 nM. This compound also returned an IC50 in data set [2] of 100 nM.

With `O=c1c2cccc(Br)c2sn1-c1ccccc1`, the IC50 in data set [6] is over 100000 nM. What is called bioavailability is dose-corrected exposure relative to a reference, in per cent. As for `O=C[C@@H](C[C@H]1CCNC1=O)NC(=O)[C@H]1[C@@H]2CCC[C@@H]2CN1C(=O)COc1ccc(Cl)cc1Cl`, the bioavailability in data set [7] came to 14.6%; in [10], 76.2%. Also, the EC50 with SARS-CoV-2 [8] stood at 540 nM; in the data set on SARS-CoV-2 [9], 1.1 nM. As for `Cc1ncsc1-c1ccc(CNC(=O)[C@@H]2C[C@@H](O)CN2C(=O)[C@@H](NC(=O)CCOCCOCCOCCn2nnc(COC(=O)N[C@@H](CC(C)C)C(=O)N[C@H](C=O)C[C@@H]3CCNC3=O)c2C)C(C)(C)C)cc1`, in data set [5], the EC50 was determined as 950 nM.

For `CC(C)C[C@H](NC(=O)Oc1ccc(OCc2cn(CCCCCOCC(=O)Nc3cccc4c3C(=O)N(C3CCC(=O)NC3=O)C4=O)nn2)cc1)C(=O)N[C@H](CO)C[C@@H]1CCNC1=O` (some centres undefined), the EC50 in [11] was 250 nM.

Consider `O=C1NCC[C@H]1C[C@H](NC(=O)[C@@H]1[C@H]2CCC[C@H]2CN1C(=O)COc1ccc(Cl)cc1Cl)C(=O)CF`, for which the EC50 in the data set with SARS-CoV-2 [12] came out at 240 nM. Also, in data set [13], the IC50 was found to be 18 nM. For the same compound, the bioavailability in [14] stood at 55.1%.

Take `Cc1c(COC2CCC(OC(=O)N[C@@H](CC(C)C)C(=O)N[C@H](C=O)C[C@@H]3CCNC3=O)CC2)nnn1CCOCCNC(=O)CCC(=O)Nc1cccc2c1C(=O)N(C1CCC(=O)NC1=O)C2=O` (some centres undefined): the half-maximal effective concentration (EC50) in data set [11] worked out at 620 nM. In general, EC90 refers to the concentration needed for an effect of 90%. Take `N#C[C@H](C[C@@H]1CCCNC1=O)NC(=O)[C@H](CC1CC1)NC(=O)c1cc2cccc(Cl)c2[nH]1` [POMOTRELVIR]: in the data set with SARS-CoV-2 [15], the 90% effect level (EC90) was put at 78 nM.

The values above are taken from ChEMBL document CHEMBL5512603, “Development of de-novo coronavirus 3-chymotrypsin-like protease (3CLpro) inhibitors since COVID-19 outbreak: A strategy to tackle challenges of persistent virus infection” (Eur J Med Chem, 2024).
